Experiment [1] relates to DR7. As to conditions: read-out: PADRE Class II Binding Affinities DR7.
The test system of experiment [2] is DQ3.1. To be noted: read-out: PADRE Class II Binding Affinities; Table VIII A.
The test system of experiment [3] is DR5. As to conditions: read-out: PADRE Class II Binding Affinities DR5.

Structures are written as SMILES. Read-outs that look alike come from different tables or passages of the source. Non-standard residues stand in square brackets, D forms with d. Residues, ends and D or L forms follow the SMILES beside them. Cha = N[C@@H](CC1CCCCC1)C(=O)O

For `CC(C)C[C@H](NC(=O)[C@@H](NC(=O)[C@H](CCC(=O)O)NC(=O)[C@H](C)NC(=O)[C@H](C)NC(=O)[C@H](C)NC(=O)[C@H](CC1CCCCC1)NC(=O)[C@H](C)NC(=O)[C@@H](C)N)[C@@H](C)O)C(=O)N[C@@H](CCCCN)C(=O)N[C@@H](C)C(=O)N[C@@H](C)C(=O)N[C@H](C)C(N)=O` [Peptide 906.24], the IC50 in experiment [1] (Table VIII A) was 373 nM; in experiment [2], 46.6 nM; in experiment [3] (Table VIII A), 11.1 nM.
As to `CC(C)C[C@H](NC(=O)[C@@H](NC(=O)[C@@H](NC(=O)[C@H](C)NC(=O)[C@H](C)NC(=O)[C@H](C)NC(=O)[C@H](CC1CCCCC1)NC(=O)[C@H](C)NC(=O)[C@@H](C)N)C(C)C)[C@@H](C)O)C(=O)N[C@@H](CCCCN)C(=O)N[C@@H](C)C(=O)N[C@@H](C)C(=O)N[C@H](C)C(N)=O` [Peptide 906.26] (H-[dA]A[Cha]AAAVTLKAA[dA]-NH2; N-terminus and C-terminus assumed), the values for the IC50 in experiment [1] (Table VIII A), in experiment [2] and in experiment [3] (Table VIII A) were 65.8 nM, 27.9 nM and 3.9 nM, respectively.
`CC(C)C[C@H](NC(=O)[C@@H](NC(=O)[C@H](Cc1ccccc1)NC(=O)[C@H](C)NC(=O)[C@H](C)NC(=O)[C@H](C)NC(=O)[C@H](CC1CCCCC1)NC(=O)[C@H](C)NC(=O)[C@@H](C)N)[C@@H](C)O)C(=O)N[C@@H](CCCCN)C(=O)N[C@@H](C)C(=O)N[C@@H](C)C(=O)N[C@H](C)C(N)=O` [Peptide 906.27]: the IC50 was determined as 65.8 nM in experiment [1] (Table VIII A), 44.1 nM in experiment [2] and 2.6 nM in experiment [3] (Table VIII A).
For the molecule `CC(C)C[C@H](NC(=O)[C@@H](NC(=O)[C@@H](NC(=O)[C@H](C)NC(=O)[C@H](C)NC(=O)[C@H](C)NC(=O)[C@H](CC1CCCCC1)NC(=O)[C@H](C)NC(=O)[C@@H](C)N)[C@@H](C)O)[C@@H](C)O)C(=O)N[C@@H](CCCCN)C(=O)N[C@@H](C)C(=O)N[C@@H](C)C(=O)N[C@H](C)C(N)=O` [Peptide 906.28], the IC50 amounted to 69.4 nM in experiment [1] (Table VIII A), 28.5 nM in experiment [2] and 5 nM in experiment [3] (Table VIII A).
In the case of `C[C@H](NC(=O)[C@H](C)NC(=O)[C@H](C)NC(=O)[C@H](CC1CCCCC1)NC(=O)[C@H](C)NC(=O)[C@@H](C)N)C(=O)N[C@@H](C)C(=O)N[C@H](C(=O)N[C@@H](CCC(N)=O)C(=O)N[C@@H](CCCCN)C(=O)N[C@@H](C)C(=O)N[C@@H](C)C(=O)N[C@H](C)C(N)=O)[C@@H](C)O` [Peptide 906.31], the IC50 was determined as 100 nM in experiment [1] (Table VIII A), 52.6 nM in experiment [2] and 11.8 nM in experiment [3] (Table VIII A).
For `CC(C)[C@H](NC(=O)[C@@H](NC(=O)[C@H](C)NC(=O)[C@H](C)NC(=O)[C@H](C)NC(=O)[C@H](C)NC(=O)[C@H](CC1CCCCC1)NC(=O)[C@H](C)NC(=O)[C@@H](C)N)[C@@H](C)O)C(=O)N[C@@H](CCCCN)C(=O)N[C@@H](C)C(=O)N[C@@H](C)C(=O)N[C@H](C)C(N)=O` [Peptide 906.32], the IC50 worked out at 58.1 nM in experiment [1], 26 nM in experiment [2] and 4.2 nM in experiment [3].
On to `C[C@H](NC(=O)[C@H](C)NC(=O)[C@H](C)NC(=O)[C@H](CC1CCCCC1)NC(=O)[C@H](C)NC(=O)[C@@H](C)N)C(=O)N[C@@H](C)C(=O)N[C@H](C(=O)N[C@@H](Cc1ccccc1)C(=O)N[C@@H](CCCCN)C(=O)N[C@@H](C)C(=O)N[C@@H](C)C(=O)N[C@H](C)C(N)=O)[C@@H](C)O` [Peptide 906.33], for which the IC50 was determined as 43.1 nM in experiment [1] (Table VIII A), 13.4 nM in experiment [2] and 2.4 nM in experiment [3] (Table VIII A).
In the case of `CC[C@H](C)[C@H](NC(=O)[C@@H](NC(=O)[C@H](C)NC(=O)[C@H](C)NC(=O)[C@H](C)NC(=O)[C@H](C)NC(=O)[C@H](CC1CCCCC1)NC(=O)[C@H](C)NC(=O)[C@@H](C)N)[C@@H](C)O)C(=O)N[C@@H](CCCCN)C(=O)N[C@@H](C)C(=O)N[C@@H](C)C(=O)N[C@H](C)C(N)=O` [Peptide 906.34], the IC50 is 55.6 nM in experiment [1] (Table VIII A), 30.5 nM in experiment [2] and 3.1 nM in experiment [3] (Table VIII A).

For the origin of these results see patent publication US6413935B1, “Induction of immune response against desired determinants” (priority 1993, dated 2002).
